From patent US12077503B2, “Substituted cyclic amides and their use as herbicides” (FMC CORPORATION, priority 2015, dated 2024)

What was measured:
Type in all cases: in vivo
[1] = system: giant foxtail (Setaria faberi); experiment: Test G Post-Emergence Protocol; conditions: Setaria faberi, post-emergence, 312 h, read-out: Foxtail, Giant damage rating
Summary of the method: (§1)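 Values are percent visual injury at 13 days after treatment (0 none, 100 total). Treatment was a post-emergence spray at 15.625, 62.5 or 250 g/ha on 8-day-old pot plants kept at 24/16 °C.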

[2] = system: redroot pigweed (Amaranthus retroflexus); experiment: Test G Post-Emergence Protocol; conditions: Amaranthus retroflexus, post-emergence, 312 h, read-out: Pigweed, Redroot damage rating
Summary of the method: as §1

corn (Zea mays) [3] = experiment: Test G Post-Emergence Protocol; conditions: Zea mays, post-emergence, 312 h, read-out: Corn damage rating
Summary of the method: as §1

[4] = system: velvetleaf (Abutilon theophrasti); experiment: Test G Post-Emergence Protocol; conditions: Abutilon theophrasti, post-emergence, 312 h, read-out: Velvetleaf damage rating
Summary of the method: as §1

[5] = system: ivy-leaved morning glory (Ipomoea hederacea); experiment: Test G Post-Emergence Protocol; conditions: Ipomoea, post-emergence, 312 h, read-out: Morningglory, Ivy-leaved damage rating
Summary of the method: as §1

[6] = system: barnyardgrass (Echinochloa crus-galli); experiment: Test G Post-Emergence Protocol; conditions: Echinochloa crus-galli, post-emergence, 312 h, read-out: Barnyardgrass damage rating
Summary of the method: as §1

[7] = system: giant foxtail (Setaria faberi); experiment: Test G Pre-Emergence Protocol; conditions: Setaria faberi, pre-emergence, 312 h, evaluated after 13 days
Summary of the method: (§2)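 Under a 24/16° C day/night regime with 14 h light and 65% humidity, sown pots were sprayed after one day with compound (15.625, 62.5 or 250 g/ha; 50:50 acetone/water, 0.5% Tween 20). Damage was assessed visually 13 days later, 0 to 100.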

[8] = system: redroot pigweed (Amaranthus retroflexus); experiment: Test G Pre-Emergence Protocol; conditions: Amaranthus retroflexus, pre-emergence, 312 h, evaluated after 13 days
Summary of the method: as §2

corn (Zea mays) [9] = experiment: Test G Pre-Emergence Protocol; conditions: Zea mays, pre-emergence, 312 h, evaluated after 13 days
Summary of the method: as §2

[10] = system: velvetleaf (Abutilon theophrasti); experiment: Test G Pre-Emergence Protocol; conditions: Abutilon theophrasti, pre-emergence, 312 h, evaluated after 13 days
Summary of the method: as §2

[11] = system: ivy-leaved morning glory (Ipomoea hederacea); experiment: Test G Pre-Emergence Protocol; conditions: Ipomoea, pre-emergence, 312 h, evaluated after 13 days
Summary of the method: as §2

[12] = system: barnyardgrass (Echinochloa crus-galli); experiment: Test G Pre-Emergence Protocol; conditions: Echinochloa crus-galli, pre-emergence, 312 h, evaluated after 13 days
Summary of the method: as §2

[13] = 15.625 g ai/ha, evaluated after 13 days (100=total damage to plant; 0=no damage to plant)
[14] = 62.5 g ai/ha, evaluated after 13 days, 100=total damage to plant, 0=no damage to plant
[15] = 250 g ai/ha, evaluated after 13 days, 100=total damage to plant, 0=no damage to plant

CN1C[C@H](c2cccc(C(F)(F)F)c2)[C@@H](C(=O)Nc2cnccc2[N+](=O)[O-])C1=O (racemic) [Compound 1731] showed a pest or weed control at 15.625 g/ha [1, 13] of 0%, a pest or weed control at 62.5 g/ha [1, 14] of 0% and a pest or weed control at 250 g/ha [1, 15] of 0%. It also gave a pest or weed control at 15.625 g/ha [2, 13] of 0%, a pest or weed control at 62.5 g/ha [2, 14] of 0% and a pest or weed control at 250 g/ha [2, 15] of 10%. The plant injury at 15.625 g/ha (corn (Zea mays) [3]; [13]) was 0%, the plant injury at 62.5 g/ha (corn (Zea mays) [3]; [14]) was 0% and the plant injury at 250 g/ha (corn (Zea mays) [3]; [15]) was 0%. For the same compound, the pest or weed control at 15.625 g/ha [4, 13] was 0%, the pest or weed control at 62.5 g/ha [4, 14] was 0% and the pest or weed control at 250 g/ha [4, 15] was 0%. The pest or weed control at 15.625 g/ha [5, 13] was 0%, the pest or weed control at 62.5 g/ha [5, 14] was 0% and the pest or weed control at 250 g/ha [5, 15] was 0%. It also gave a pest or weed control at 15.625 g/ha [6, 13] of 0%, a pest or weed control at 62.5 g/ha [6, 14] of 0% and a pest or weed control at 250 g/ha [6, 15] of 0%. It also gave a pest or weed control at 15.625 g/ha ([7]; 15.625 g ai/ha, read-out: Foxtail, Giant damage rating (100=total damage to plant; 0=no damage to plant)) of 0%, a pest or weed control at 62.5 g/ha ([7]; 62.5 g ai/ha, 100=total damage to plant, 0=no damage to plant, read-out: Foxtail, Giant damage rating) of 0% and a pest or weed control at 250 g/ha ([7]; 250 g ai/ha, read-out: Foxtail, Giant damage rating (100=total damage to plant; 0=no damage to plant)) of 20%. The pest or weed control at 15.625 g/ha ([8]; 15.625 g ai/ha, read-out: Pigweed, Redroot damage rating (100=total damage to plant; 0=no damage to plant)) was 0%, the pest or weed control at 62.5 g/ha ([8]; 62.5 g ai/ha, 100=total damage to plant, 0=no damage to plant, read-out: Pigweed, Redroot damage rating) was 0% and the pest or weed control at 250 g/ha ([8]; 250 g ai/ha, read-out: Pigweed, Redroot damage rating (100=total damage to plant; 0=no damage to plant)) was 0%. The plant injury at 15.625 g/ha (corn (Zea mays) [9]; 15.625 g ai/ha, read-out: Corn damage rating (100=total damage to plant; 0=no damage to plant)) was 0%, the plant injury at 62.5 g/ha (corn (Zea mays) [9]; 62.5 g ai/ha, 100=total damage to plant, 0=no damage to plant, read-out: Corn damage rating) was 0% and the plant injury at 250 g/ha (corn (Zea mays) [9]; 250 g ai/ha, read-out: Corn damage rating (100=total damage to plant; 0=no damage to plant)) was 0%. The pest or weed control at 15.625 g/ha ([10]; 15.625 g ai/ha, read-out: Velvetleaf damage rating (100=total damage to plant; 0=no damage to plant)) was 0%, the pest or weed control at 62.5 g/ha ([10]; 62.5 g ai/ha, 100=total damage to plant, 0=no damage to plant, read-out: Velvetleaf damage rating) was 0% and the pest or weed control at 250 g/ha ([10]; 250 g ai/ha, read-out: Velvetleaf damage rating (100=total damage to plant; 0=no damage to plant)) was 0%. The pest or weed control at 15.625 g/ha ([11]; 15.625 g ai/ha, read-out: Morningglory, Ivy-leaved damage rating (100=total damage to plant; 0=no damage to plant)) was 0%, the pest or weed control at 62.5 g/ha ([11]; 62.5 g ai/ha, 100=total damage to plant, 0=no damage to plant, read-out: Morningglory, Ivy-leaved damage rating) was 0% and the pest or weed control at 250 g/ha ([11]; 250 g ai/ha, read-out: Morningglory, Ivy-leaved damage rating (100=total damage to plant; 0=no damage to plant)) was 0%. For the same compound, the pest or weed control at 15.625 g/ha ([12]; 15.625 g ai/ha, read-out: Barnyardgrass damage rating (100=total damage to plant; 0=no damage to plant)) was 0%, the pest or weed control at 62.5 g/ha ([12]; 62.5 g ai/ha, 100=total damage to plant, 0=no damage to plant, read-out: Barnyardgrass damage rating) was 0% and the pest or weed control at 250 g/ha ([12]; 250 g ai/ha, read-out: Barnyardgrass damage rating (100=total damage to plant; 0=no damage to plant)) was 0%.
